Publication PMC3230704 (Molecular pharmaceutics, 2011)
Where no end group is shown, it is not given here.

Columns and labels:
MT1-MMP = conditions: cited from earlier work
MT1-MMP (MMP-14) = MT1-MMP (MMP-14) (Homo sapiens, UniProt P50281); test: Fluorescence activation of MT-P by activated MT1-MMP; format: biochemical; conditions: MT1-MMP 0, 4, 20 and 40 nM, 60 min, spectrofluorimetry
MDA-MB-435 tumor = test: In vivo NIR fluorescence imaging of MT1-MMP-positive tumor-bearing mice
[1] = test system: MDA-MB-435 tumor-bearing mice; test: Ex vivo biodistribution imaging of excised tumors and organs; format: in vivo; conditions: 24 hrs post-injection, without inhibitor

For RIGFLR, the “specificity constant (kcat/Km)” value (MT1-MMP) is given as 777,200 M^−1s^−1.
In the case of GRIGFLRTAKGG [MT-P], the “activation of NIR fluorescent signals over the probe without MT1-MMP” value (MT1-MMP (MMP-14)) is reported as “up to 10 fold”, the “onset of activation in tumor” value (MDA-MB-435 tumor; 5 nmol i.v., MDA-MB-435 tumor-bearing mice) is reported as “less than 1 hr” and the “fluorescent signal in the tumor at 48 hrs post-injection” value (MDA-MB-435 tumor; 48 hrs post-injection) is reported as “not detectable”. The “biodistribution of activated fluorescence” value [1] was “activated predominantly in the tumor and liver over other organs”.
